Experiments:
[1] = test system: corn; test: Test C pre-/postemergence herbicide test; assay type: in vivo, Zea mays; conditions: Preemergence; for Plant response rating, Corn: 125 g ai/ha, scale 0 to 100; for Plant response rating (scale of 0 to 100), Corn: 250 g ai/ha
Description: (§1) Seeds of plant species selected from blackgrass (Alopecurus myosuroides), ryegrass, Italian (Italian ryegrass, Lolium multiflorum), wheat (winter wheat, Triticum aestivum), galium (catchweed bedstraw, Galium aparine), corn (Zea mays), crabgrass, large (large crabgrass, Digitaria sanguinalis), foxtail, giant (giant foxtail, Setaria faberii), johnsongrass (Sorghum halepense), lambsquarters (Chenopodium album), morningglory (Ipomoea coccinea), nutsedge, yellow (yellow nutsedge, Cyperus esculentus), pigweed (Amaranthus retroflexus), ragweed (common ragweed, Ambrosia elatior), soybean (Glycine max), barnyardgrass (Echinochloa crus-galli), oilseed rape (Brassica napus), waterhemp (common waterhemp, Amaranthus rudis), kochia (Kochia scoparia), oat, wild (wild oat, Avena fatua), surinam grass (Brachiaria decumbens), foxtail, green (green foxtail, Setaria viridis), goosegrass (Eleusine indica), bromegrass, downy (downy bromegrass, Bromus tectorum), nightshade (eastern black nightshade, Solanum ptycanthum), cocklebur (common cocklebur, Xanthium strumarium), cupgrass, woolly (woolly cupgrass, Eriochloa villosa), bermudagrass (Cynodon dactylon), sunflower, (common oilseed sunflower, Helianthus annuus), Russian thistle (Salsola kali) and velvetleaf (Abutilon theophrasti) were planted into a blend of loam soil and sand and treated preemergence with test chemicals formulated in a non-phytotoxic solvent mixture which included a surfactant. At the same time, plants selected from these crop and weed species and also barley (winter barley, Hordeum vulgare), […]), chickweed (common chickweed, Stellaria media), deadnettle (henbit deadnettle, Lamium amplexicaule), and canarygrass (littleseed canarygrass, Phalaris minor) were planted in pots containing Redi-Earth® planting medium (Scotts Company, 14111 Scottslawn Road, Marysville, Ohio 43041) comprising spaghnum peat moss, vermiculite, wetting agent and starter nutrients and treated with postemergence applications of test chemicals formulated in the same manner. Plants ranged in height from 2 to 18 cm (1- to 4-leaf stage) for postemergence treatments. Treated plants and controls were maintained in a greenhouse for 13 to 15 days, after which time all species were compared to controls and visually evaluated. Plant response ratings, summarized in Table C, are based on a scale of 0 to 100 where 0 is no effect and 100 is complete control. A dash (-) response means no test result.

[2] = test system: galium; test: Test C pre-/postemergence herbicide test; assay type: in vivo, Galium aparine; conditions: Preemergence; for Plant response rating, Galium: 125 g ai/ha, scale 0 to 100; for Plant response rating (scale of 0 to 100), Galium: 250 g ai/ha
How it was run: (§2)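 Pre-emergence: seeds sown in loam/sand blend and treated with compound in surfactant-containing solvent. Post-emergence: plants at 2–18 cm (1- to 4-leaf stage) in peat-based medium sprayed with the same formulation. Visual rating versus controls after 13–15 days in greenhouse, scale 0 (no effect) to 100 (complete control).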

[3] = test system: wheat; test: Test A pre-/postemergence herbicide test; assay type: in vivo, Triticum aestivum; conditions: Postemergence
How it was run: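 Seeds in loam–sand blend received preemergence directed soil spray; separately, plants 2–10 cm at one- to two-leaf stage received postemergence spray, both with test chemicals in non-phytotoxic solvent with surfactant. After ~10 days in greenhouse, injury rated visually against untreated controls, 0 (no effect) to 100 (complete control).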

[4] = test system: blackgrass; test: Test C pre-/postemergence herbicide test; assay type: in vivo, Alopecurus myosuroides; conditions: Preemergence; for Plant response rating, Blackgrass: 125 g ai/ha, scale 0 to 100; for Plant response rating (scale of 0 to 100), Blackgrass: 250 g ai/ha
Description: as §1

[5] = test system: johnsongrass; test: Test C pre-/postemergence herbicide test; assay type: in vivo, Sorghum halepense; conditions: Preemergence; for Plant response rating, Johnsongrass: 125 g ai/ha, scale 0 to 100; for Plant response rating (scale of 0 to 100), Johnsongrass: 250 g ai/ha
Description: as §1

[6] = test system: waterhemp; test: Test C pre-/postemergence herbicide test; assay type: in vivo, Amaranthus rudis; conditions: Preemergence; for Waterhemp plant response rating: 62 g ai/ha, scale 0 to 100 (0 no effect, 100 complete control); for Plant response rating, Waterhemp: 125 g ai/ha, scale 0 to 100
How it was run: as §2

[7] = test system: ragweed; test: Test C pre-/postemergence herbicide test; assay type: in vivo, Ambrosia elatior; conditions: Preemergence; for Ragweed plant response rating: 62 g ai/ha, scale 0 to 100 (0 no effect, 100 complete control); for Plant response rating, Ragweed: 125 g ai/ha, scale 0 to 100
How it was run: as §2

[8] = test system: oilseed rape; test: Test C pre-/postemergence herbicide test; assay type: in vivo, Brassica napus; conditions: Preemergence; for Plant response rating, Oilseed Rape: 125 g ai/ha, scale 0 to 100; for Plant response rating (scale of 0 to 100), Oilseed Rape: 250 g ai/ha
How it was run: as §2

[9] = test system: ryegrass, Italian; test: Test C pre-/postemergence herbicide test; assay type: in vivo, Lolium multiflorum; conditions: Preemergence; for Ryegrass, Italian plant response rating: 62 g ai/ha, scale 0 to 100 (0 no effect, 100 complete control); for Plant response rating, Ryegrass, Italian: 125 g ai/ha, scale 0 to 100
How it was run: as §2

[10] = test system: crabgrass, large; test: Test C pre-/postemergence herbicide test; assay type: in vivo, Digitaria sanguinalis; conditions: Preemergence; for Plant response rating, Crabgrass, Large: 125 g ai/ha, scale 0 to 100; for Plant response rating (scale of 0 to 100), Crabgrass, Large: 250 g ai/ha
Description: as §1

[11] = test system: soybean; test: Test C pre-/postemergence herbicide test; assay type: in vivo, Glycine max; conditions: Preemergence; for Soybean plant response rating: 62 g ai/ha, scale 0 to 100 (0 no effect, 100 complete control); for Plant response rating, Soybean: 125 g ai/ha, scale 0 to 100
Description: as §1

[12] = 31 g ai/ha, scale 0 to 100, 0 is no effect and 100 is complete control
[13] = 62 g ai/ha, scale 0 to 100 (0 no effect, 100 complete control)
[14] = 125 g ai/ha, visual rating on 0 to 100 scale (0 no effect, 100 complete control), approx. 10 days

Compound | Corn plant response rating [1, 12] | Corn plant response rating [1, 13] | Plant response rating, Corn [1] | Plant response rating (scale of 0 to 100), Corn [1] | Galium plant response rating [2, 12] | Galium plant response rating [2, 13] | Plant response rating, Galium [2] | Plant response rating (scale of 0 to 100), Galium [2] | Plant response rating, Wheat [3, 14] | Blackgrass plant response rating [4, 12] | Blackgrass plant response rating [4, 13] | Plant response rating, Blackgrass [4] | Plant response rating (scale of 0 to 100), Blackgrass [4] | Johnsongrass plant response rating [5, 12] | Johnsongrass plant response rating [5, 13] | Plant response rating, Johnsongrass [5] | Plant response rating (scale of 0 to 100), Johnsongrass [5] | Waterhemp plant response rating [6] | Plant response rating, Waterhemp [6] | Ragweed plant response rating [7] | further results
CC(C)c1cccc(C2CNC(=O)C2C(=O)Nc2cccc(F)c2F)c1 (stereo not shown) [Compound 319] | 0 | 30 | 60 | 65 | 95 | 70 | 80 | 85 | 20 | 40 | 0 | 30 | 80 | 40 | 55 | 65 | 75 | 35 | 35 | 15 | Plant response rating, Wheat ([3]; 500 g ai/ha, 0 to 100 scale (0 no effect, 100 complete control)): 50; Plant response rating, Ragweed [7]: 40; Oilseed Rape plant response rating [8, 12]: 0; Oilseed Rape plant response rating [8, 13]: 5; Plant response rating, Oilseed Rape [8]: 60; Plant response rating (scale of 0 to 100), Oilseed Rape [8]: 65; Ryegrass, Italian plant response rating [9]: 10; Plant response rating, Ryegrass, Italian [9]: 20; Crabgrass, Large plant response rating [10, 12]: 95; Crabgrass, Large plant response rating [10, 13]: 98; Plant response rating, Crabgrass, Large [10]: 95; Plant response rating (scale of 0 to 100), Crabgrass, Large [10]: 98; Soybean plant response rating [11]: 0; Plant response rating, Soybean [11]: 0
O=C1NCC(c2cccc(C(F)(F)F)c2)C1C(=O)Nc1ccc(F)c(F)c1F (stereo not shown) [Compound 345] | 40 | 35 | 65 | 85 | 20 | 90 | 90 | 85 | 50 | 50 | 50 | 90 | 90 | 35 | 75 | 85 | 90 | 5 | 40 | 40 | Plant response rating, Ragweed [7]: 15; Oilseed Rape plant response rating [8, 12]: 50; Oilseed Rape plant response rating [8, 13]: 55; Plant response rating, Oilseed Rape [8]: 85; Plant response rating (scale of 0 to 100), Oilseed Rape [8]: 85; Ryegrass, Italian plant response rating [9]: 45; Plant response rating, Ryegrass, Italian [9]: 10; Crabgrass, Large plant response rating [10, 12]: 95; Crabgrass, Large plant response rating [10, 13]: 98; Plant response rating, Crabgrass, Large [10]: 95; Plant response rating (scale of 0 to 100), Crabgrass, Large [10]: 98; Soybean plant response rating [11]: 0; Plant response rating, Soybean [11]: 5

Source: patent publication US10294202B2, “Pyrrolidinones as herbicides” (FMC Corporation, priority 2013, dated 2019)
